Results on 17 compounds are retold here after ChEMBL document CHEMBL1777713, “Ketonethiosemicarbazones: structure-activity relationships for their melanogenesis inhibition” (Bioorg Med Chem Lett, 2011).

Experiment [1] has as its system B16. The experiment in a line: Inhibition of alpha-MSH-induced melanin production in mouse B16 cells at 10 uM after 3 days. The class given is functional. The following applies: B16, 72 h.
Experiment [2] concerns B16. Kind of experiment: Inhibition of alpha-MSH-induced melanin production in mouse B16 cells after 3 days. The class given is functional, cell-based. Particulars: B16, 72 h.

One may read the inhibition as the share of the control response that was lost under treatment. As usually defined, the IC50 is the concentration needed to halve the response being measured. Lower therefore signals inhibition by little substance.

`C/C(=N\NC(N)=S)c1ccc(C)cc1`: the inhibition at 10 µM in experiment [1] is greater than 100%. Moreover, the concentration for half-maximal inhibition (IC50) in experiment [2] came out at 0.84 µM.

Compound `CC/C(=N\NC(N)=S)c1ccc(C)cc1` registered an inhibition at 10 µM in experiment [1] greater than 100%. Further, in experiment [2], the half-inhibitory concentration (IC50) came to 2.6 µM.

In experiment [1], `CC(C)/C(=N\NC(N)=S)c1ccccc1` showed an inhibition at 10 µM of 96%. Further, half-maximal inhibition in experiment [2] (IC50) was put at 3.7 µM.

Compound `CC/C(=N\NC(=S)NC)c1ccc(C)cc1` yielded an inhibition at 10 µM in experiment [1] greater than 100%. Moreover, half-maximal inhibition in experiment [2] (IC50) required 2 µM.

In experiment [1], `CCNC(=S)N/N=C(\CC)c1ccc(C)cc1` displayed an inhibition at 10 µM greater than 100%. The compound also yielded a concentration for half-maximal inhibition (IC50) in experiment [2] of 1.9 µM.

`CC/C(=N\NC(=S)Nc1ccccc1)c1ccc(C)cc1` yielded an inhibition at 10 µM in experiment [1] greater than 100%. This compound also displayed a concentration for half-maximal inhibition (IC50) in experiment [2] of 0.79 µM.

In experiment [1], `CC(NNC(N)=S)c1ccccc1` (centres undefined) yielded an inhibition at 10 µM of 36%. The same compound had a 50% inhibitory concentration (IC50) in experiment [2] greater than 30 µM.

Take `Cc1ccc(C(C)NNC(N)=S)cc1` (centres undefined): testing at 10 µM in experiment [1] gave an inhibition of 61%. The compound further registered an IC50 in experiment [2] of 8.1 µM.

The compound `CCC(NNC(N)=S)c1ccc(C)cc1` (centres undefined) showed an inhibition at 10 µM in experiment [1] greater than 100%. For the same compound, half-maximal inhibition in experiment [2] (IC50) required 3.9 µM.

On to `NC(=S)N/N=C1\CCCc2ccccc21`, for which, in experiment [1], the inhibition at 10 µM is greater than 100%. In experiment [2], this compound gave an IC50 of 2.3 µM.

For the compound `C/C(=N\NC(N)=S)c1cccs1`, in experiment [1], testing at 10 µM gave an inhibition of 82%. In experiment [2], this compound gave a half-inhibitory concentration (IC50) of 6.1 µM.

For the compound `COc1ccc(/C(C)=N/NC(N)=S)cc1`, the inhibition at 10 µM in experiment [1] is greater than 100%. Further, the IC50 in experiment [2] stood at 2.7 µM.

As for `CC/C(=N\N=C(\N)S)c1ccc(Br)cc1`, the inhibition at 10 µM in experiment [1] is greater than 100%. The same compound came in with an IC50 in experiment [2] of 2 µM.

Turning to `CC/C(=N\N=C(\N)S)c1ccc(OC)cc1`, the inhibition at 10 µM in experiment [1] is greater than 100%. The same compound gave an IC50 in experiment [2] of 4 µM.

Take `CC/C(=N\N=C(\N)S)c1ccc(Cl)cc1`: in experiment [1], the inhibition at 10 µM is greater than 100%. In experiment [2], this compound yielded an IC50 of 2.9 µM.

For `NC(=S)NN=C(c1ccccc1)c1ccccc1` [BENZOPHENONE-THIOSEMICARBAZONE], the inhibition at 10 µM in experiment [1] was 97%. Also, the IC50 in experiment [2] was found to be 4.9 µM.

In experiment [1], `C/C(=N\N=C(/N)S)c1ccccc1` [PHENYL(METHYL)THIOSEMICARBAZONE] displayed an inhibition at 10 µM greater than 100%. For the same compound, the IC50 in experiment [2] amounted to 2.3 µM.
